Patent publication US8877463B2, “Rhodanobacter ginsenosidimutans KCTC22231T-derived ginsenoside glycosidase, and use thereof” (Korea Research Institute of Bioscience and Biotechnology, priority 2009, dated 2014)

B1: Bgl3054: Rhodanobacter ginsenosidimutans KCTC22231T-derived ginsenoside glycosidase protein, 433 amino acids, SEQ ID NO. 2 (protein)
chain: GLGRRRASMMRGTPMTNPFPQDFLWGVATAGHQVEGNNVNSDVWFLEHLPGTIFAEPSGDAVDHYHRYREDIALIAGLGFTSYRFSVEWARIEPEEGHFSVAALDHYKRVLEACREHGLTPVVTFHHFASPLWLLRSGGWEGERTPELFARYCGRVMAHLGDLIGVACTLNEPNLPWLLESFGIGGEAPENRGKVPMWAAAAQRLGVDASTVAPFQFCSTEAGFNVKLAAHKAATEAIKAHRPDLRVGWTLANSDIQSVPGGEEIAAQVRRDVNERFLEASRGDDFVGIQTYGRTVYGPDGHAPAPEGVAVNQMGEEIYPQALEATIREAWRVAGIPVMVTENGLATEDDTQRVAYLRTAVDGVASCLADGIDVRGYIAWTAFDNFEWIFGYGPKFGLIAVDRSTQERTPKESARWLGNFARQQAPAEAPQPA
modifications: Bgl3054

Tests used:
[1] = test system: Bgl3054 ginsenoside glycosidase; assay: Specificity and selectivity of the enzyme for hydrolysis of ginsenosides (TLC, HPLC, NMR); assay type: biochemical, Rhodanobacter ginsenosidimutans KCTC22231T; conditions: 0.2U enzyme, 50 mM sodium phosphate buffer pH 7.0, 0.1% (w/v) substrate, 37° C.
Procedure: In order to analyze the specificity and selectivity of the enzyme for the hydrolysis of glucose at the C-3 and C-20 positions of ginsenoside, ginsenoside Rb1, Rb2, Rc, Rd, and Rg3 were used as the substrates. Each reaction mixture containing 0.2U enzyme, 50 mM sodium phosphate buffer 0.1% (w/v) (pH 7.0), and the substrate was incubated at 37° C. Each sample was withdrawn at regular intervals, and an equal volume of water-saturated butanol was added to stop the reaction. The n-butanol fraction was evaporated to dryness, and residual material was dissolved in CH3OH and then examined by TLC HPLC or NMR analysis, and the results are shown in FIGS. 10, 11 and 12.

[2] = test system: ginsenoside glycosidase Bgl3054; assay: Reaction of expressed ginsenoside glycosidase with Rb1 solution, TLC analysis; assay type: biochemical, Rhodanobacter ginsenosidimutans KCTC22231T; conditions: 1 mg/ml Rb1 solution in 50 mM sodium phosphate
Procedure: E.coil C41 (DE3) containing overexpressed plasmid was cultured in LB-ampicillin media at 37° C. when the OD value at 600 nm reached 0.6, and treated with 0.5 mM isopropyl-β-D-thiogalactopyranoside for 12 hours to induce protein expression. The bacterial cells were obtained by centrifugation at 4° C. and 5,000×g for 20 minutes. The cell pellet was resuspended in a solution (suspension) consisting of 50 mM sodium phosphate, 5 mM EDTA, and 1% Triton X-100 (pH 7.0) and subjected to ultrasonification. Ginsenoside glycosidase was completely hydrated without formation of insoluble precipitate, and ginsenoside glycosidase was reacted with 1 mg/ml Rb1 solution in 50 mM sodium phosphate, and TLC analysis was performed.

Bgl3054 = assay: Substrate preference with chromogenic ONP and PNP substrates; assay type: biochemical, Rhodanobacter ginsenosidimutans KCTC22231T; conditions: 2.0 mM substrate, 37° C., 5 minutes; for activity of Bgl3054 for the substrate, rank order after ONP-β-D-fucopyranoside: descending order as listed: PNP-fucopyranoside, oNP-glucopyranoside, ONP-galactopyranoside, PNP-glucopyranoside, PNP-arabinopyranoside, PNP-galactopyranoside
Procedure: A free PNP-type substrate has a yellow color, but turns colorless when it binds with various sugars. The characteristics of glucosidase-type enzymes were analyzed using this principle. For example, PNPGlc is a colorless compound prepared by beta linkage of PNP and glucose, but free PNP catalyzed by beta-glucosidase has a yellow color. Thus, when a color change occurs by use of PNPGlc as a substrate, the enzyme is determined as a beta-glucosidase. In addition, when PNP-β-D-galactopyranoside is metabolized by an enzyme to produce yellow color, it is determined as β-D-galactopyranosidase. The color becomes darker according to characteristics and concentrations of the substrate, and thus it is possible to measure the concentration of the enzyme using a spectrometer.
1 activity unit was defined as the release of o-nitrophenol or p-nitrophenol per minute. For analysis of substrate preference, 2.0 mM chromogenic ONP and PNP (p-nitrophenyl) were used as the substrates, and incubated in 50 mM sodium phosphate buffer at 37° C. for 5 minutes.
The analyzed substrates (Sigma) were PNP-β-D-glucopyranoside, PNP-β-D-galactopyranoside, PNP-β-D-fucopyranoside, PNP-N-acetyl-β-D-glucosaminide, PNP-β-L-arabinopyranoside, PNP-β-D-mannopyronoside, PNP-β-D-xylopyranoside, PNP-β-D-glucopyranoside, PNP-β-L-arabinofuranoside, PNP-β-L-arabinopyranoside, PNP-β-D-rhamnopyranoside, PNP-β-D-mannopyranoside, and PNP-β-D-xylopyranoside, and o-nitrophenol[ONP]-β-D-glucopyranoside, ONP-β-D-galactopyranoside, ONP-β-D-fucopyranoside, and ONP-β-D-galactopyranoside.

[3] = molecular target: ginsenoside glycosidase (Bgl3054) (Microbacterium sp. Gsoil167, UniProt L0ELG0); assay: Metal and chemical agent effects on enzymatic activity; assay type: biochemical, Rhodanobacter ginsenosidimutans KCTC22231T; conditions: at the concentration of 10 mM or more; room temperature 30 minutes; pNPGlc substrate
Procedure: Specific activity was measured using 90 μl of 50 mM sodium phosphate buffer containing 2.0 mM pNPGlc (p-nitrophenyl-β-D-glucopyranoside; Sigma) at pH 7.0, and 10 μl of the diluted purified enzyme was treated at 37° C. for 20 minutes before initiation of the reaction, followed by incubation. 0.1 ml of 1 M Na2CO3 was treated for 5 minutes to terminate the reaction, and the concentration of p-nitrophenol was immediately measured at 405 nm. One unit of activity was defined as the amount of enzyme that released 1 μmol of p-nitrophenol per minute. Specific activity is expressed in units per milligram protein. Protein concentration was measured using a Bio-Rad protein staining reagent according to the protocol. All analyses were performed at least three times.
Ginsenoside glycosidase was incubated at room temperature for 30 minutes in 1 mM and 10 mM (final concentration) of ZnCl2, MnCl2, CaCl2, CoCl2, MgCl2, EDTA, NaCl, KCl, CuCl2, DTT, SDS, and mercaptoethanol, and pNPGlc (p-nitrophenyl-β-D-glucopyranoside; Sigma) was used as a substrate to measure the activity. The resulting value was represented as a percentage to the obtained activity upon lack of the compounds, and is shown in Table 1.

[4] = test system: ginsenoside glycosidase (Bgl3054); assay: Kinetic studies of pNPGlc hydrolysis (Km, Vmax); assay type: biochemical, Rhodanobacter ginsenosidimutans KCTC22231T; conditions: pNPGlc 0.1 mM to 0.6 mM, 37° C., 20 minutes, absorbance 405 nm
Procedure: Further, kinetic studies were performed with freshly purified enzyme using pNPGlc (p-nitrophenyl-β-D-glucopyranoside; Sigma) at the concentrations of from 0.1 mM to 0.6 mM. Its absorbance at 405 nm was monitored at 37° C. for 20 minutes. The resulting data were used to determine Km and Vmax using the Enzyme Kinetics Program reported by Cleland.
Km and Vmax for the hydrolysis of pNPGlc (p-nitrophenyl-β-D-glucopyranoside; Sigma) by ginsenoside glycosidase were calculated using the Enzyme Kinetics Program reported by Cleland.

[5] = assay type: biochemical; conditions: 4-90° C., 2.0 mM pNPGlc, 50 mM potassium phosphate buffer, optimum pH, 5 minutes
Procedure: The effect of temperature on the enzymatic activity was measured. The temperature was adjusted between 4-90° C., and 2.0 mM pNPGlc (p-nitrophenyl-β-D-glucopyranoside; Sigma) was used to analyze the temperature-dependent activity in the 50 mM potassium phosphate buffer at the optimum pH for 5 minutes.
Further, the equivalent amount of enzyme was incubated in 50 mM potassium phosphate buffer within the same temperature range for 30 minutes to analyze the temperature stability. The sample was cooled in ice for 10 minutes, and the residual activity was measured according to a standard analytical procedure, and the results are shown in FIG. 7.

[6] = assay type: biochemical; conditions: 2.0 mM pNPGlc, 50 mM buffers
Procedure: The effect of pH on the enzymatic activity was measured. 2.0 mM pNPGlc (p-nitrophenyl-β-D-glucopyranoside; Sigma) was used as a substrate, and pH was adjusted using the following buffer (50 mM).
pH range of 2 to 10: KCl-HCl (pH 2), glycine-HCl (pH 3), sodium acetic acid (pH 4 and 5), sodium phosphate (pH 6 and 7), Tris-HCl (pH 8 and 9) and glycine-sodium hydroxide (pH 10) Further, the effect of pH on the enzymatic stability was measured. The enzyme was incubated in each of the above mentioned buffers at 4° C. for 24 hours, and then pHPGlc was analyzed in 50 mM potassium buffer to measure the enzymatic stability according to pH change. Residue activity was analyzed according to a standard analytical procedure, and the results are shown in FIG. 6 as an activity probability obtained at the optimum pH.

| Molecule | bioconversion of the ginsenoside substrate by the enzyme [1] | activity of Bgl3054 for the substrate, rank order after ONP-β-D-fucopyranoside (Bgl3054) | other results |
| --- | --- | --- | --- |
| CC(C)=CCC[C@](C)(O[C@@H]1O[C@H](CO[C@@H]2O[C@H](CO)[C@@H](O)[C@H](O)[C@H]2O)[C@@H](O)[C@H](O)[C@H]1O)[C@H]1CC[C@]2(C)[C@@H]1[C@H](O)C[C@@H]1[C@@]3(C)CC[C@H](O[C@@H]4O[C@H](CO)[C@@H](O)[C@H](O)[C@H]4O[C@@H]4O[C@H](CO)[C@@H](O)[C@H](O)[C@H]4O)C(C)(C)[C@@H]3CC[C@]12C [Ginsenoside Rb1, ginsenoside Rb1] | converted into Rd |  | conversion of ginsenoside by Bgl3054 (TLC) [2]: into F2 via Rd |
| CC(C)=CCC[C@](C)(O[C@@H]1O[C@H](CO[C@@H]2O[C@@H](CO)[C@H](O)[C@H]2O)[C@@H](O)[C@H](O)[C@H]1O)[C@H]1CC[C@]2(C)[C@@H]1[C@H](O)C[C@@H]1[C@@]3(C)CC[C@H](O[C@@H]4O[C@H](CO)[C@@H](O)[C@H](O)[C@H]4O[C@@H]4O[C@H](CO)[C@@H](O)[C@H](O)[C@H]4O)C(C)(C)[C@@H]3CC[C@]12C [Ginsenoside Rc, ginsenoside Rc] | converted into compound Mc1 |  |  |
| C[C@H]1O[C@@H](Oc2ccccc2[N+](=O)[O-])[C@H](O)[C@@H](O)[C@H]1O [ONP-β-D-fucopyranoside] |  |  | activity of Bgl3054 for the substrate (substrate preference) (Bgl3054; 50 mM sodium phosphate buffer): highest activity |
| O=[N+]([O-])c1ccccc1O[C@@H]1O[C@H](CO)[C@H](O)[C@H](O)[C@H]1O [ONP-β-D-galactopyranoside] |  | higher activity in this order |  |
| C[C@H]1O[C@@H](Oc2ccc([N+](=O)[O-])cc2)[C@H](O)[C@@H](O)[C@H]1O [PNP-β-D-fucopyranoside] |  | higher activity in this order |  |
| O=[N+]([O-])c1ccc(O[C@@H]2O[C@H](CO)[C@H](O)[C@H](O)[C@H]2O)cc1 [PNP-β-D-galactopyranoside] |  | higher activity in this order |  |
| O=[N+]([O-])c1ccc(O[C@H]2OC[C@H](O)[C@H](O)[C@H]2O)cc1 [PNP-β-L-arabinopyranoside] |  | higher activity in this order |  |
| CC(C)=CCC[C@](C)(O[C@@H]1O[C@H](CO[C@@H]2OC[C@H](O)[C@H](O)[C@H]2O)[C@@H](O)[C@H](O)[C@H]1O)[C@H]1CC[C@]2(C)[C@@H]1[C@H](O)C[C@@H]1[C@@]3(C)CC[C@H](O[C@@H]4O[C@H](CO)[C@@H](O)[C@H](O)[C@H]4O[C@@H]4O[C@H](CO)[C@@H](O)[C@H](O)[C@H]4O)C(C)(C)[C@@H]3CC[C@]12C [Rb2, ginsenoside Rb2] | converted into Rd |  |  |
| CC(C)=CCC[C@](C)(O[C@@H]1O[C@H](CO)[C@@H](O)[C@H](O)[C@H]1O)[C@H]1CC[C@]2(C)[C@@H]1[C@H](O)C[C@@H]1[C@@]3(C)CC[C@H](O[C@@H]4O[C@H](CO)[C@@H](O)[C@H](O)[C@H]4O[C@@H]4O[C@H](CO)[C@@H](O)[C@H](O)[C@H]4O)C(C)(C)[C@@H]3CC[C@]12C [Rd, ginsenoside Rd] | converted into F2 |  |  |
| CCCCCCCCCCCCOS(=O)(=O)[O-].[Na+] [SDS] |  |  | effect on the enzymatic activity [3]: inhibitory effect |
| O=[N+]([O-])c1ccccc1O[C@@H]1O[C@H](CO)[C@@H](O)[C@H](O)[C@H]1O [oNP-β-D-glucopyranoside, o-nitrophenol[ONP]-β-D-glucopyranoside] |  | higher activity in this order |  |
| O=[N+]([O-])c1ccc(O[C@@H]2O[C@H](CO)[C@@H](O)[C@H](O)[C@H]2O)cc1 [pNPGlc, p-nitrophenyl-β-D-glucopyranoside] |  | higher activity in this order | Vmax for the hydrolysis of pNPGlc by ginsenoside glycosidase [4]: 0.3177(±0.01654) mmol*min−1*mg of protein-1 |
| B1 |  |  | temperature of maximum activity [5]: 40-55 °C; pH of highest activity [6]: 7.0 |
